We go through 12 compounds from patent US10093697B2, “IBAT inhibitors for the treatment of liver diseases” (Albireo AB, priority 2010, dated 2018).

Chain of IBAT (P70172 whole entry): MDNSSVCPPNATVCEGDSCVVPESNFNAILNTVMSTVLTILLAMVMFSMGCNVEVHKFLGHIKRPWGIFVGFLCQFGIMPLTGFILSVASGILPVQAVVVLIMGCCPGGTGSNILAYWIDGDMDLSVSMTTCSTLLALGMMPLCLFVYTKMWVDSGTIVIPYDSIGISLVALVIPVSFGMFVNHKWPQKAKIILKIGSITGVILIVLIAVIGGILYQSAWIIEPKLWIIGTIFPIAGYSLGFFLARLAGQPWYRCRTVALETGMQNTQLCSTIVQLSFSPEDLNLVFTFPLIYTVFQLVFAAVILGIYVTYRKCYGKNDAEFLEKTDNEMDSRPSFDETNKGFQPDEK
Chain of Ileal Bile Acid Transporter Human (Q12908 whole entry): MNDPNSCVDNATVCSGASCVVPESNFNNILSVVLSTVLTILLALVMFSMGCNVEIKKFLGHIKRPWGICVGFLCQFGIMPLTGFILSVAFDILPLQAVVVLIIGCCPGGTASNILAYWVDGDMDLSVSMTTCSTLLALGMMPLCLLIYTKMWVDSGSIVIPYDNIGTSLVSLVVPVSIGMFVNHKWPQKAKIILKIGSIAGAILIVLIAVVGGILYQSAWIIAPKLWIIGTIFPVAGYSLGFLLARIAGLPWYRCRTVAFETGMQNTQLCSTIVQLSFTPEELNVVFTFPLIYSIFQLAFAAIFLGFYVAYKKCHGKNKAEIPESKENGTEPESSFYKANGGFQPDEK

The first experiment has as its target Ileal Bile Acid Transporter Human (Homo sapiens (Human), UniProt Q12908). Nature of the experiment: ISBT Hu HEK Uptake SPA: glycocholic acid uptake, radiometric SPA. The format is cell-based. The settings on record: human IBAT in HEK cells. The protocol:
ISBT Hu HEK Uptake SPA 13203 IBAT HUM Ileal Bile Acid Transporter Human HEK Glycocholic acid Uptake Radiometric—SPA Inhibitor IC50 Mean IC50 (nM) was determined for the compounds of examples 1-14
In the case of `CCCCC1(CCCC)CN(c2ccccc2)c2cc(SC)c(OCC(=O)N[C@@H](C(=O)N[C@H](C(=O)O)C(C)C)c3ccc(O)cc3)cc2S(=O)(=O)N1` [Example 13, 1,1-Dioxo-3,3-dibutyl-5-phenyl-7-methylthio-8-(N—{(R)-α-[N—((S)-1-carboxy-2-methylpropyl)carbamoyl]-4-hydroxybenzyl}carbamoylmethoxy)-2,3,4,5-tetra hydro-1,2,5-benzothiadiazepine], the IC50 (as a rule, the concentration that inhibits the measured activity by half) amounted to 0.13 nM.

In a further experiment the target is IBAT (Mus musculus (Mouse), UniProt P70172). Description: 75SeHCAT intestinal absorption in ApoE knock out mice (IBAT inhibitory effect). The format is in vivo. The settings on record: po, oral dose 0.156 μmol/kg, 75SeHCAT absorption over 24 hours. The protocol:
Species Mouse; Strain ApoE knock out; Sub strain C57BL/6; Sex Female; Total No. of animals 70; Body weight range 20 g to 22 g; Supplier Möllegaard's Breeding (Skensved, Denmark); Identification method ID cards (bar code).
Acclimatisation At least one week at the Section of Laboratory; Animal Resource at AstraZeneca; Housing conditions Kept five by five in cages (Makrolon III, 7 dm2) in a room with regulated temperature (22° C.), relative humidity (40% to 60%) and a 12/12 hours light/dark cycle. Diet Free access to R3 pellets (Lactamin, Vadstena, Sweden) during the housing and experimental period. Water, free access to tap water during the housing and experimental period.
The animals were orally administered vehicle (n=3) or the compound of Example 14 (0.156 (n=3), 0.625 (n=3) or 2.5 μmol/kg (n=3)) at 13:00 o'clock on the experimental day. Thirty minutes later, a trace amount of ^75SeHCAT (^75Se-homo-tauro-cholic acid) ([…] per 0.1 mL per mouse) was orally given to each mouse. Twenty-four hours after ^75SeHCAT administration, the animals were killed by CO2 inhalation. At sacrifice, the gall bladder and the whole intestine were removed, and the faeces during the 24-hour period after ^75SeHCAT administration was collected for each mouse. The gamma radioactivities of ^75SeHCAT in the faeces and in the gall bladder-intestine were separately counted by 1282 CompuGamma CS Gamma counter (Wallac oy, Turku, Finland). The stability as well as the quantity of the ^75SeHCAT administered to each mouse, were controlled with an additional ^75SeHCAT aliquot following the same experimental process as other tested samples in the study.
The sum of the gamma counts from both the faeces and the gall bladder-intestine was considered as the total recovered ^75SeHCAT, which was averaged around 85% of the total ^75SeHCAT administered to each mouse. Of the recovered radioactivity of ^75SeHCAT, the percentage of the ^75SeHCAT detected in the faeces was considered as the faecal excretion while that in the gall bladder-intestine as body retention. Inhibitory effect of the compound of Example 14 on ^75SeHCAT intestinal absorption was calculated following the ^75SeHCAT body retention and the faecal excretion, and the ED50 of the compound was estimated following the dose-effect curve.
The mean IBAT inhibitory effect (%) at a dose (μmol/kg): 0.156 was determined for the compounds of examples 1-14 and is reported in Table 1.
As for `CCCCC1(CCCC)CN(c2ccccc2)c2cc(SC)c(OCC(=O)N[C@@H](C(=O)N[C@H](C(=O)O)C(C)C)c3ccccc3)cc2S(=O)(=O)N1` [Example 7, 1,1-Dioxo-3,3-dibutyl-5-phenyl-7-methylthio-8-(N—{(R)-α-[N—((S)-1-carboxy-2-methylpropyl)carbamoyl]benzyl}carbamoylmethoxy)-2,3,4,5-tetrahydro-1,2,5-benzothiadiazepine], the inhibition (as a rule, the change of the read-out against control, counted positive when it falls) at 0.156 µmol/kg was found to be 66%.
Regarding `CCCCC1(CCCC)CN(c2ccccc2)c2cc(SC)c(OCC(=O)N[C@@H](C(=O)N[C@@H](CSC)C(=O)O)c3ccccc3)cc2S(=O)(=O)N1` [Example 4, 1,1-Dioxo-3,3-dibutyl-5-phenyl-7-methylthio-8-(N—{(R)-α-[N—((R)-1-carboxy-2-methylthioethyl)carbamoyl]benzyl}carbamoylmethoxy)-2,3,4,5-tetrahydro-1,2,5-benzothiadiazepine], the inhibition at 0.156 µmol/kg was 63%.
For the compound `CCCCC1(CCCC)CN(c2ccccc2)c2cc(SC)c(OCC(=O)N[C@@H](C(=O)N[C@@H](CCC)C(=O)O)c3ccc(O)cc3)cc2S(=O)(=O)N1` [Example 9, 1,1-Dioxo-3,3-dibutyl-5-phenyl-7-methylthio-8-(N—{(R)-α-[N—((S)-1-carboxybutyl)carbamoyl]-4-hydroxybenzyl}carbamoylmethoxy)-2,3,4,5-tetrahydro-1,2,5-benzothiadiazepine], the inhibition at 0.156 µmol/kg worked out at 67%.
The compound `CCCCC1(CCCC)CN(c2ccccc2)c2cc(SC)c(OCC(=O)N[C@@H](C(=O)N[C@@H](CSC)C(=O)O)c3ccc(O)cc3)cc2S(=O)(=O)N1` [Example 6, 1,1-Dioxo-3,3-dibutyl-5-phenyl-7-methylthio-8-(N—{(R)-α-[N—((R)-1-carboxy-2-methylthio-ethyl)carbamoyl]-4-hydroxybenzyl}carbamoylmethoxy)-2,3,4,5-tetra hydro-1,2,5-benzothiadiazepine] yielded an inhibition at 0.156 µmol/kg of 59%.
In turn, `CCCCC1(CCCC)CN(c2ccccc2)c2cc(SC)c(OCC(=O)N[C@@H](C(=O)N[C@@H](C)C(=O)O)c3ccc(O)cc3)cc2S(=O)(=O)N1` [Example 12, 1,1-Dioxo-3,3-dibutyl-5-phenyl-7-methylthio-8-(N—{(R)-α-[N—((S)-1-carboxyethyl)carbamoyl]-4-hydroxybenzyl}carbamoylmethoxy)-2,3,4,5-tetrahydro-1,2,5-benzothiadiazepine] gave an inhibition at 0.156 µmol/kg of 63%.
The compound `CCCCC1(CCCC)CN(c2ccccc2)c2cc(SC)c(OCC(=O)N[C@@H](C(=O)NCC(=O)O)c3ccccc3)cc2S(=O)(=O)C1` [Example 14, 1,1-Dioxo-3,3-dibutyl-5-phenyl-7-methylthio-8-(N—{(R)-1′-phenyl-1′-[N′-(carboxymethyl)carbamoyl]methyl}carbamoylmethoxy)-2,3,4,5-tetrahydro-1,5-benzothiazepine] had an inhibition at 0.156 µmol/kg of 28%.
`CCCCC1(CCCC)CN(c2ccccc2)c2cc(SC)c(OCC(=O)N[C@@H](C(=O)N[C@@H](CC)C(=O)O)c3ccccc3)cc2S(=O)(=O)N1` [Example 3, 1,1-Dioxo-3,3-dibutyl-5-phenyl-7-methylthio-8-(N—{(R)-α-[N—((S)-1-carboxypropyl)carbamoyl]benzyl}carbamoylmethoxy)-2,3,4,5-tetrahydro-1,2,5-benzothiadiazepine]: the inhibition at 0.156 µmol/kg amounted to 63%.
`CCCCC1(CCCC)CN(c2ccccc2)c2cc(SC)c(OCC(=O)N[C@@H](C(=O)NCC(=O)O)c3ccccc3)cc2S(=O)(=O)N1` [Example 1, 1,1-Dioxo-3,3-dibutyl-5-phenyl-7-methylthio-8-(N—{(R)-α-[N-(carboxymethyl)carbamoyl]benzyl}carbamoylmethoxy)-2,3,4,5-tetrahydro-1,2,5-benzothiadiazepine] came in with an inhibition at 0.156 µmol/kg of 43%.
`CCCCC1(CCCC)CN(c2ccccc2)c2cc(SC)c(OCC(=O)N[C@@H](C(=O)N[C@@H](CC)C(=O)O)c3ccc(O)cc3)cc2S(=O)(=O)N1` [Example 5, 1,1-Dioxo-3,3-dibutyl-5-phenyl-7-methylthio-8-(N—{(R)-α-[N—((S)-1-carboxypropyl)carbamoyl]-4-hydroxybenzyl}carbamoylmethoxy)-2,3,4,5-tetrahydro-1,2,5-benzothiadiazepine] returned an inhibition at 0.156 µmol/kg of 74%.
Still for that read-out and setting: then `CCCCC1(CCCC)CN(c2ccccc2)c2cc(SC)c(OCC(=O)N[C@@H](C(=O)N[C@@H](C)C(=O)O)c3ccccc3)cc2S(=O)(=O)N1` [Example 10, 1,1-Dioxo-3,3-dibutyl-5-phenyl-7-methylthio-8-(N—{(R)-α-[N—((S)-1-carboxyethyl)carbamoyl]benzyl}carbamoylmethoxy)-2,3,4,5-tetrahydro-1,2,5-benzothiadiazepine], with 68%; and `CCCCC1(CCCC)CN(c2ccccc2)c2cc(SC)c(OCC(=O)N[C@@H](C(=O)N[C@H](C(=O)O)[C@@H](C)O)c3ccc(O)cc3)cc2S(=O)(=O)N1` [Example 8, 1,1-Dioxo-3,3-dibutyl-5-phenyl-7-methylthio-8-(N—{(R)-α-[N—((S)-1-carboxy-2-(R)-hydroxypropyl)carbamoyl]-4-hydroxybenzyl}carbamoylmethoxy)-2,3,4,5-tetrahydro-1,2,5-benzothiadiazepine], with 46%; and `CCCCC1(CCCC)CN(c2ccccc2)c2cc(SC)c(OCC(=O)N[C@@H](C(=O)N[C@H](C(=O)O)C(C)C)c3ccc(O)cc3)cc2S(=O)(=O)N1` [Example 13, 1,1-Dioxo-3,3-dibutyl-5-phenyl-7-methylthio-8-(N—{(R)-α-[N—((S)-1-carboxy-2-methylpropyl)carbamoyl]-4-hydroxybenzyl}carbamoylmethoxy)-2,3,4,5-tetra hydro-1,2,5-benzothiadiazepine], with 68%.

The test system of a further experiment is Mdr2−/− mice. Description: In vivo animal model of primary sclerosing cholangitis (Mdr2-/- mice). The settings on record: daily oral gavage for 2-4 weeks, vs vehicle. The source says:
A genetic mice with targeted disruption of the Multidrug resistant Mdr2 (Abcb4) gene encoding a canalicular phospholipid flippase (Mdr2−/−mice) spontaneously develop sclerosing cholangitis with macroscopic and microscopic features of human Primary sclerosing cholangitis. Bile duct injury in these mice is linked to defective biliary phospholipid secretion resulting in an increased concentration of free non-micellar bile acids which subsequently cause bile duct epithelial cell (cholangiocyte) injury, pericholangitis, periductal fibrosis with ductular proliferation and finally sclerosing cholangitis. […] In analogy to the Mdr2−/− mouse model of sclerosing cholangitis, Multidrug resistant protein MDR3/ABCB4 (the human orthologue of rodent Mdr2/Abcb4) defects play a role in the pathogenesis of various cholangiopathies in humans. MDR3 variants play a role as a modifier gene in the pathogenesis of various cholangiopathies such as PSC, Primary Biliary cirrhosis (PBC) and adulthood idiopathic ductopenia/biliary fibrosis.
Mdr2−/− mice were given daily oral doses of the compound of Example 14 by gavage for 2-4 weeks and controls were dosed the vehicle in the same way. Serum liver tests, liver histology and fibrosis were investigated. The compound of Example 14 improves liver tests, liver histology and fibrosis.
For the compound `CCCCC1(CCCC)CN(c2ccccc2)c2cc(SC)c(OCC(=O)N[C@@H](C(=O)NCC(=O)O)c3ccccc3)cc2S(=O)(=O)C1` [Example 14, 1,1-Dioxo-3,3-dibutyl-5-phenyl-7-methylthio-8-(N—{(R)-1′-phenyl-1′-[N′-(carboxymethyl)carbamoyl]methyl}carbamoylmethoxy)-2,3,4,5-tetrahydro-1,5-benzothiazepine], the fibrosis entry is on record as “improves”, the liver histology result was “improves” and the “liver tests (serum)” value is “improves”.
